# Measured values: the pKa sets of Baltruschat and Czodrowski (2020)
# Several values for one entry are separate records, joined by “and”; a condition that tells them apart may be missing. Identical values can stand only once. Where a SMILES comes first, the peptide text is derived from it.
Structure (SMILES),pKa (acidic group),pKa (basic group)
O=C1CCC(C(=O)O)N1 (centres undefined),3.25,–
COc1ccc(-c2ncc(-c3ccc([NH3+])cc3)o2)cc1,–,0.85
Cc1c(-c2ccccc2)nn(-c2ccccc2)c1O,7.8,–
O=C([O-])CSc1nc2cc3c(cc2[nH]1)CCCC3,–,5.2
Nc1cccc2ccc([N+](=O)[O-])cc12,–,2.83
CC(C)(C)C#CC(=O)O,2.66,–
c1ccc(-c2nnn[nH]2)cc1,4.03,–
Cc1cscn1,–,3.14
Cc1n[nH]c(O)c1-c1ccccc1,11.4,–
C/C(O)=C/C(N)=O,9.46,–
CCOC(=O)N1CCc2noc(O)c2CC1,4.7,–
C#CC(C)(C)N(C)C(C)(C)C,–,9.3
Cc1cc(-c2ccccc2)n(-c2ccc(C(=O)O)cc2)n1,–,1.59
[NH3+][C@@H](Cc1c[nH]c2ccccc12)C(=O)O,2.2,–
C[NH+]1CCC(n2nc(-c3ccccc3)c(Cc3ccccc3)c2O)CC1,6.73,–
CCN(CC)Cc1c([O-])c(Cl)cc(Cl)c1Cl,–,11.8
S=C(/N=N/c1ccccc1)NNc1ccccc1,–,4.64
CCOc1nccc([O-])n1,–,8.2
Cc1cccc(C(C)c2c[nH]cn2)c1C (centres undefined),–,7.04
CC(C)C[C@H](N)C(=O)N[C@@H](Cc1c[nH]cn1)C(=O)[O-] (H-Leu-His-OH),–,7.78
O=C(O)C1CCCC1,4.99,–
CC1(C)CC(=O)C(C=O)C(=O)C1,3.65,–
Nc1ccc2ncccc2c1,–,5.63

Structure (SMILES),pKa (acidic group),pKa (basic group)
CC(C)(C)c1ccnc(C(C)(C)C)c1,–,6.7
Oc1ccccc1O,9.33,–
CC(=O)Nc1ccc(C2CCC[NH+]2C)cn1 (centres undefined),–,2.2
Cn1nnnc1N,–,1.82
c1cnc2c(c1)ccc1ccc[nH+]c12,–,2.04
Cc1ccc2ccc(C)nc2c1,–,5.01
O=C([O-])[C@@H]1O[C@H](Oc2ccc3cccnc3c2)[C@@H](O)[C@H](O)[C@H]1O,–,5.32
CCCCCCCCN(CC(C)O)CC(O)CC (centres undefined),–,8.1
O=C(O)Cc1cccs1,3.85,–
O/N=C1/CCCC(=N\O)/C1=N/O,8.21 and 8.12,–
Cc1cnn(C)c1C,–,3.58
NCc1ccccc1[N+](=O)[O-],–,8.59
CC(C#N)CC(=O)O (centres undefined),3.95,–
Nc1ncnc2nn([C@@H]3C[C@@H](O)[C@H](CO)O3)nc12,–,3.1
c1ccc(-c2ccco2)nc1,–,4.18
O=Cc1cc(-c2ccccc2)nnc1NCC[NH+]1CCOCC1,–,2.6
CC1=NCCc2c1[nH]c1ccc([N+](=O)[O-])cc21,12.6,6.37
C=CCN(CC=C)CCCN(CC=C)CC=C,–,8.8
NCC(O)c1ccc(Cl)cc1 (centres undefined),–,9.04
c1ccc(-c2ccc[nH+]c2)nc1,–,1.52
CCCCCC(C)(C)N,–,10.8
CN1CCCCC1,–,10.1
NCC(F)F,–,7.09

Structure (SMILES),pKa (acidic group),pKa (basic group)
CCC(C)Nc1ccccc1 (centres undefined),–,5.47
C[NH+]1C[C@H](C(=O)O)C[C@@]2(O)c3cccc4[nH]cc(c34)C[C@@H]12,3.42,–
Nc1ccc(B(O)O)cc1,9.17,3.71
C#CCO,13.3,–
CCN(CC)C(C)C(=O)Nc1c(C)cccc1C (centres undefined),–,8.11
Nc1cccc([I+]c2ccccc2)c1,–,1.87
C[NH+](C)CCNc1c2ccccc2nc2cccc([N+](=O)[O-])c12,–,4.9
Cc1ccc(C(=S)Nc2ccc(Br)cc2)cc1,10.8,–
Nc1nc2ccccc2c2ccccc12,–,7.31
COc1ccc2c3c1O[C@H]1C(=O)CC[C@H]4[C@@H](C2)N(C)CC[C@]314,–,7.67
COc1ccc(-c2ncc(-c3ccccc3)o2)cc1,–,1.25
COc1ccc(C[C@H](C)N)cc1OC,–,9.6
O=[PH]([O-])C(NCc1ccccn1)c1ccccc1O (centres undefined),12,8.08
C[NH+](C)CCCNc1ccnc2c([N+](=O)[O-])cccc12,–,6.91
COCCNc1ccc(Cl)cc1,–,3.3
N#CC(Br)C#N,5,–
Cc1cnc(C)c(O)c1C=O,8.08,4.1
CN(C)c1ccc(/C=C/c2cc[n+]([O-])cc2)cc1,–,4.3
C[n+]1cccc(/C=C(/O)c2ccccc2)c1,6.75,–
COC(=O)Nc1ncnc2nc[nH]c12,9.68,2.27
Clc1ccnc2c1ccc1c(Cl)ccnc12,–,3.03
NCCSCC[NH3+],–,8.84
O=C(O)C[Se]c1cccc([N+](=O)[O-])c1,3.55,–

Structure (SMILES),pKa (acidic group),pKa (basic group)
CCOC(=O)N1CCN(C)CC1,–,7.31
CN1c2ccccc2Nc2c(O)cccc21,9.26,–
CC[Si](C)(C)CCCC(=O)O,5.02,–
CCN(CC)CCC[C@@H](C)[C@H]1CC[C@H]2[C@@H]3CC[C@@H]4C[C@H](O)CC[C@]4(C)[C@H]3C[C@H](O)[C@]12C,–,10.3
O=C([O-])[C@@H]1Cc2[nH]cnc2C[NH2+]1,–,4.73
CC(C[NH3+])/C(N)=N/O (centres undefined),–,3.65
CCc1ccc(N)cc1,–,5.16
CC(=O)C[N+](=O)[O-],5.1,–
COc1ccc2nccc(N)c2c1,–,8.94
COc1ccc(O)c(C[NH2+]C(CO)C(=O)O)c1 (centres undefined),2.1,–
C[C@@H]1[C@@H]2Cc3ccc(O)cc3[C@@]1(C)CCN2CCF,–,8.35
Cc1ccc(N)c(C)c1,–,4.75
COc1cccc(CCC(=O)O)c1,4.65,–
c1ccc2c(c1)CNCCCNCc1ccccc1OCCO2,–,9.82
Cc1cc(Cc2cc(C)c(O)c(C)c2)c(O)c([N+](=O)[O-])c1,7.98,–
CC[NH+]1CCC[C@@H]1CNC(=O)c1c(OC)ccc([N+](=O)[O-])c1O,5.75,–
CCCCCCCCN(CC(O)CC)CC(O)CC (centres undefined),–,7.5
N#CC(C#N)c1ccc([N+](=O)[O-])cc1,2.35,–
O=C([O-])c1cccc2cc3ccccc3nc12,–,7.72
Nc1ccc2[nH]cnc2c1,–,6.11
O=C(O)/C(Cl)=N/O,1.5,–
CCC(CC)C(=O)O,4.73,–
O=[N+]([O-])c1cccc2nccc(NCCCO)c12,–,7.06

Structure (SMILES),pKa (acidic group),pKa (basic group)
Cc1nnc(N)nc1C,–,3.71
CC[NH+](CC)CCNc1cc(C)nc(Nc2ccc(Cl)cc2)n1,–,6.65
N#CCC[n+]1cccc(C(N)=O)c1.[Br-],13.2,–
C[C@H]1CC[C@H]2[C@H](C)CC[C@@H](C(=O)O)[NH+]2C1,2,–
CC(CN(C)C)N(C)C (centres undefined),–,9.49
Cc1nc(-c2ccccc2[S-])[nH]c1C,9,–
CCNCC[NH2+]CC,–,7.7
CCc1cc(C(C)C)ccc1O,10.8,–
O=C([O-])C(CO)[NH2+]Cc1cc([N+](=O)[O-])ccc1O (centres undefined),6.15,–
[NH3+]Cc1nc2ccccc2[nH]1,–,3.28
C[NH+]1CCC(NN)CC1,–,5.7
CCOc1ccc2[nH]c(CC(C)C)nc2c1,–,6.07
N#Cc1ccc(S(=O)(=O)NCc2ccccc2)cc1,10.3,–
O=C(O)C12CCC(C1)C2,3.96,–
NC(=O)[C@H](N)[C@H](O)C(=O)O,2.31,7.17
Cc1cc(N)c(O)cc1C,10.4,5.28
C1=C(c2nc3ccccc3o2)C2CCN1CC2,–,7.23
C[NH+]1C[C@H](C(=O)O)C=C2c3cccc4[nH]cc(c34)C[C@@H]21,3.25,–
O=[N+]([O-])c1cc(Br)c(O)c(Br)c1,3.7,–
OC(CN1CCOCC1)C[NH+]1CCOCC1,–,5
